“Also recorded” adds a separate entry of the source. Where a name gives a salt, the structure may show the parent alone.
Experiments:
[1] = system: LPS-induced inflamed mouse ear; assay: In vivo MSC homing to LPS-induced inflamed ear after systemic infusion, intravital microscopy; design: key to In vivo functional assay (homing): NA = negative activity result; A = positive activity result; conditions: for Increase of MSC homing to inflamed ear (%): relative to untreated cells; for MSC homing to the inflamed ear in vivo, result in words: vs vehicle-treated control
Description: C57BL/6 mice (Charles River Laboratories, Wilmington, Mass.) were anesthetized with ketamine/xylazine and their ears shaved 24 h prior to cell infusion. To induce an inflammatory response, 30 μg of E. coli lipopolysaccharide (LPS, Sigma, St. Louis, Mo.) in 50 μL saline was injected into the pinna of the left ear, with 50 μL 0.9% saline injected into the right ear as a control. For in vivo dye sensitivity validation, 1×10e6 cells of each stain were suspended in 150 μL PBS (pH 7.4) and injected by retro-orbital vein infusion.
To evaluate the minimum number of cells needed for a reproducible response, each mouse (n=4) received a range of cell doses (10,000, 50,000, 100,000, or 500,000) each of cells stained with Dil or DiD with a dye switch (i.e., dyes used for experimental and control cells were alternated to prevent bias based on the dyes that were used). To evaluate the impact of small molecule hit pre-treatment on MSC homing to the inflamed ear, MSCs were incubated with 3 μM of the small molecule hit or 0.1% DMSO as a control for 24 h before staining and in vivo administration. To highlight the vasculature, 50 μL of 10 mg/mL FITC-dextran ([…]; Sigma, St. Louis, Mo.) was injected retro-orbitally prior to imaging.
In vitro staining and in vivo homing of stained MSCs to the skin was imaged noninvasively in real time using a custom-built video-rate laser-scanning confocal microscope designed specifically for live animal imaging. For in vivo imaging, the mouse ear was positioned under a coverslip with methylcellulose gel and images acquired at 30 frames per second at a depth up to 200 μm using a 60×1.0NA water immersion objective lens (Olympus, Center Valley, Pa.). DiO labeled MSCs were excited with a 491 nm continuous wave (CW) laser (Cobalt, Stockholm, Sweden), and detected through a 520±20 nm bandpass filter (Semrock, Inc., Rochester, N.Y.). Dil labeled MSCs were excited with a 561 nm CW laser (Coherent, Inc., Santa Clara, Calif.) and detected through a 593 nm±40 nm filter (Omega Optical, Brattleboro, Vt.). DiD labeled MSCs were excited with a 635 nm CW laser (Coherent, Inc., Santa Clara, Calif.) and detected through a 695 nm±27.5 nm band pass filter (Omega Optical, Brattleboro, Vt.). DiR labeled MSCs were excited using a femtosecond Ti:Sapphire Maitai source for single photon excitation at 750 nm (Spectra Physics, Santa Clara, Calif.) and collected through a 785 nm±31 nm band pass filter (Omega Optical, Brattleboro, Vt.).
For quantification, the average number of cells in 20 representative imaging locations across the inflamed region was counted in each mouse. Cells were defined as having a diameter from 10-30 μm to eliminate debris and clumps from analysis, and a primary channel intensity greater than 2 to eliminate autofluorescent events. The average relative detection sensitivity (ratio of Dil/DiD counts) determined in the overall dye efficiency experiments were used to scale the counts for DiD stained cells. […] For multiple comparisons, Tukey's HSD test was used. Error bars in graphs represent standard error, and statistical significance is denoted by * p<0.05.

[2] = system: MSC firm adhesion to E-selectin-coated surface; assay: E-selectin firm adhesion assay under shear flow, with antibody blocking; type: cell-based, human; conditions: 3 μM for 24 h
Description: Cell adhesion experiments were performed using Bioflux1000 (FluxionBio), allowing accurate control over shear flow. A special 48-well plate was used, in which a microfluidic channel (350 μm×70 μm) connects each pair of adjacent wells (termed inlet and outlet wells). The plate was placed under vacuum and the channels were coated from the inlet with recombinant human E-selectin (5 μg/mL) or ICAM-1 (5 μg/mL) and incubated at 37° C. for 1 h. Prior to introducing the cells into the channel, a wash with PBS−/− from the outlet well was performed for 5 min. Compound-pretreated MSCs were introduced into the channel, followed by attachment period of 2 minutes (no flow applied during the attachment period). Attached cells were then subjected to increasing shear flow, ranging from 0.25 dynes/cm^2 for up to 10 dynes/cm^2. Images were acquired using the Montage software and cell adhesion to the coated channels following subjection to shear flow was examined. See also disclosure elsewhere herein.
Pre-confluent MSCs were incubated for 24 hours with the indicated small molecules (3 μM). MSCs were than detached, washed and incubated for 30 minutes with an antibody reagent. The following antibodies are used: anti-human CD11a (clone: HI111), anti-human CD90 (clone: MAB2067), mouse anti-human CD11a (clone: TS1/22), and mouse IgG1 isotype control. Cells were then introduced into the channel and given 2 minutes to adhere before being subjected to increasing shear flow for a firm adhesion assay on a microfluidic channel coated with E-selectin or ICAM-1.
1. Obtain preferred channel coating (protein/cell monolayer). 2. Prepare cell suspension (same concentrations detailed above for different cell types). 3. Add 50 μl of cell suspension to outlet well. 4. Introduce cells into channel by applying shear force of 2 dynes/cm^2 (cells should be observed within 10-15 sec flowing from outlet to inlet). 5. Once cells are observed in the channel, stop the flow and allow the introduced cells to sit for different time periods ranging from 30 seconds to 5 minutes. 6. Following this settling period, apply shear force starting from 0.5 dynes/cm^2 up to 10 dynes/cm^2 and acquire videos using stream acquisition. 7. Cell quantification is then performed using the Montage software—percentage of cells adhered, rolled or washed away after applying shear flow should be quantified.

[3] = MSCs pretreated 3 μM 24 h, 24 h after infusion

SMILES	Increase of MSC homing to inflamed ear compared to vehicle-treated MSCs [1, 3] [%]	MSC homing to skin in the inflamed ear, average cells [1, 3] [cells/cm^2]	Increased homing versus vehicle-treated MSCs, without CD11a blocking ([1]; inflamed ear) [%]	Increased homing versus vehicle-treated MSCs, CD11a blocked prior to infusion ([1]; inflamed ear, anti-human CD11a clone TS1/22)	Increase of MSC homing to inflamed ear (%) ([1]; hydrochloride)	In vivo functional assay (homing) ([1]; systemic administration of pretreated huMSCs)	MSC homing to the inflamed ear in vivo, result in words [1]	Adhered cells on E-selectin-coated surface before CD11a blocking [2] [%]	Firm adhesion to E-selectin of pretreated MSC compared to control MSCs [2] [fold]	Adhered cells on E-selectin-coated surface following CD11a blocking ([2]; CD11a blocking antibody 30 minutes) [%]	Effect of antibody blocking of CD90 on firm adhesion ([2]; E-selectin)	Increase of MSC homing to inflamed ear (%) [1] [%]	Effect of antibody blocking of CD11a or CD90 on firm adhesion ([2]; E-selectin)	MSC firm adhesion to E-selectin-coated substrates, result in words ([2]; vs vehicle-treated MSCs)
Cn1cc(C2=C(c3c4n(c5ccccc35)CCC(CN)C4)C(=O)NC2=O)c2ccccc21 (stereo not shown) [Compound 1929, 3-(8-aminomethyl-6,7,8,9-tetrahydro-pyrido[1,2-a]indol-10-yl)-4-(1-methyl-1H-indol-3-yl)-pyrrole-2,5-dione hydrochloride]	69.3±11.3	78.5±15.9	70	less than 10%	73	A	significantly promoted MSC homing	~90	3	50	no effect	–	–	–
CCc1c2c(nc3ccc(OC(=O)N4CCC(N5CCCCC5)CC4)cc13)-c1cc3c(c(=O)n1C2)COC(=O)[C@]3(O)CC [Compound 1927, reference compound]	–	47.2±20.4	–	–	–	–	no impact; also recorded: did not affect MSC homing	–	–	–	–	0	no effect	did not improve
